Source: ChEMBL document CHEMBL1649270, “ST-246 inhibits in vivo poxvirus dissemination, virus shedding, and systemic disease manifestation” (2009)
Calls of active or inactive are those of the source. The rule behind the calls is not given here.

Assays:
Vaccinia virus WR [1] = assay: Antiviral activity against Vaccinia virus WR ATCC VR-1354 infected through percutaneous route in BALB/c mouse assessed as reduction of viral load in spleen at 100 mg/kg, po qd for 1 day by RT-PCR analysis relative to control; assay type: functional
Vaccinia virus WR [2] = assay: Antiviral activity against Vaccinia virus WR ATCC VR-1354 infected through dermal scarification route in ACAM2000 vaccinated BALB/c mouse assessed as reduction of swab virus titers at 100 mg/kg, po qd measured after 14 days postinfection by RT-PCR analysis relative to control; assay type: functional
Vaccinia virus WR [3] = assay: Antiviral activity against Vaccinia virus WR ATCC VR-1354 infected through dermal scarification route in BALB/c mouse assessed as reduction of viral load in brain at 100 mg/kg, po qd measured after 5 days postinfection by RT-PCR analysis relative to control; assay type: functional
Vaccinia virus WR [4] = assay: Antiviral activity against Vaccinia virus WR ATCC VR-1354 infected through percutaneous route in BALB/c mouse assessed as protection against virus-induced conjunctivitis in mouse eyes at 100 mg/kg, po qd measured after 6 days postinfection; assay type: functional, organism-based; parameters: dose 100 mg/kg
Vaccinia virus WR [5] = assay: Antiviral activity against Vaccinia virus WR ATCC VR-1354 infected through intravenous route in BALB/c mouse assessed as reduction of viral load in lung at 100 mg/kg, po qd measured after 14 days postinfection by RT-PCR analysis relative to control; assay type: functional, organism-based; parameters: dose 100 mg/kg
Vaccinia virus WR [6] = assay: Antiviral activity against Vaccinia virus WR ATCC VR-1354 infected through dermal scarification route in BALB/c mouse assessed as reduction of viral load in liver at 100 mg/kg, po qd measured after 14 days postinfection by RT-PCR analysis relative to control; assay type: functional, organism-based; parameters: dose 100 mg/kg
Vaccinia virus WR [7] = assay: Antiviral activity against Vaccinia virus WR ATCC VR-1354 infected through intravenous route in BALB/c mouse assessed as protection against virus-induced conjunctivitis in mouse eyes at 100 mg/kg, po qd measured after 6 days postinfection; assay type: functional, organism-based; parameters: dose 100 mg/kg
Vaccinia virus WR [8] = assay: Antiviral activity against Vaccinia virus WR ATCC VR-1354 infected through percutaneous route in BALB/c mouse assessed as reduction of viral load in liver at 100 mg/kg, po qd measured after 5 days postinfection by RT-PCR analysis relative to control; assay type: functional
Vaccinia virus WR [9] = assay: Antiviral activity against Vaccinia virus WR ATCC VR-1354 infected through percutaneous route in BALB/c mouse assessed as reduction of viral load in spleen at 100 mg/kg, po qd for 3 days by RT-PCR analysis relative to control; assay type: functional
Vaccinia virus WR [10] = assay: Antiviral activity against Vaccinia virus WR ATCC VR-1354 infected through percutaneous route in BALB/c mouse assessed as inhibition of virus dissemination in spleen at 100 mg/kg, po qd for 3 days by RT-PCR analysis relative to control; assay type: functional
Vaccinia virus WR [11] = assay: Antiviral activity against Vaccinia virus WR ATCC VR-1354 infected through intraperitoneal route in BALB/c mouse assessed as reduction of viral load in spleen at 100 mg/kg, po qd measured after 3 days postinfection by RT-PCR analysis relative to control; assay type: functional, organism-based; parameters: dose 100 mg/kg
Vaccinia virus WR [12] = assay: Antiviral activity against Vaccinia virus WR ATCC VR-1354 infected through subcutaneous route in BALB/c mouse assessed as protection against virus-induced systemic disease symptoms at 100 mg/kg, po qd measured after 9 days postinfection; assay type: functional, organism-based; parameters: dose 100 mg/kg
Vaccinia virus WR [13] = assay: Antiviral activity against Vaccinia virus WR ATCC VR-1354 infected through intravenous route in BALB/c mouse assessed as reduction of viral load in liver at 100 mg/kg, po qd measured after 14 days postinfection by RT-PCR analysis relative to control; assay type: functional, organism-based; parameters: dose 100 mg/kg
Vaccinia virus WR [14] = assay: Antiviral activity against Vaccinia virus WR ATCC VR-1354 infected through intravenous route in BALB/c mouse assessed as reduction of viral load in blood at 100 mg/kg, po qd measured after 14 days postinfection by RT-PCR analysis relative to control; assay type: functional, organism-based; parameters: dose 100 mg/kg
Vaccinia virus WR [15] = assay: Antiviral activity against Vaccinia virus WR ATCC VR-1354 infected through percutaneous route in BALB/c mouse assessed as protection against virus-induced death at 100 mg/kg, po qd for 1 to 3 days; assay type: functional, organism-based; parameters: dose 100 mg/kg
Vaccinia virus WR [16] = assay: Antiviral activity against Vaccinia virus WR ATCC VR-1354 infected through percutaneous route in BALB/c mouse assessed as reduction of viral load in spleen at 100 mg/kg, po qd measured after 5 days postinfection by RT-PCR analysis relative to control; assay type: functional
Vaccinia virus WR [17] = assay: Antiviral activity against Vaccinia virus WR ATCC VR-1354 infected through intravenous route in BALB/c mouse assessed as reduction of viral load in brain at 100 mg/kg, po qd measured after 14 days postinfection by RT-PCR analysis relative to control; assay type: functional, organism-based; parameters: dose 100 mg/kg
Vaccinia virus WR [18] = assay: Antiviral activity against Vaccinia virus WR ATCC VR-1354 infected through percutaneous route in BALB/c mouse assessed as inhibition of virus dissemination in brain at 100 mg/kg, po qd for 3 to 14 days by RT-PCR analysis; assay type: functional, organism-based; parameters: dose 100 mg/kg
Vaccinia virus WR [19] = assay: Antiviral activity against Vaccinia virus WR ATCC VR-1354 infected through intravenous route in BALB/c mouse assessed as reduction of viral load in liver at 100 mg/kg, po qd measured after 3 days postinfection by RT-PCR analysis relative to control; assay type: functional
Vaccinia virus WR [20] = assay: Antiviral activity against Vaccinia virus WR ATCC VR-1354 infected through percutaneous route in BALB/c mouse assessed as protection against virus-induced systemic disease symptoms at 100 mg/kg, po qd measured after 6 days postinfection; assay type: functional, organism-based; parameters: dose 100 mg/kg
Vaccinia virus WR [21] = assay: Antiviral activity against Vaccinia virus WR ATCC VR-1354 infected through percutaneous route in BALB/c mouse assessed as reduction of viral load in brain at 100 mg/kg, po qd measured after 7 days postinfection by RT-PCR analysis relative to control; assay type: functional, organism-based; parameters: dose 100 mg/kg
Vaccinia virus WR [22] = assay: Antiviral activity against Vaccinia virus WR ATCC VR-1354 infected through percutaneous route in BALB/c mouse assessed as protection against virus-induced death at 100 mg/kg, po qd for 5 to 14 days; assay type: functional, organism-based; parameters: dose 100 mg/kg
Vaccinia virus WR [23] = assay: Antiviral activity against Vaccinia virus WR ATCC VR-1354 infected through percutaneous route in BALB/c mouse assessed as protection against weight loss at 100 mg/kg, po qd for 1 to 3 days measured on day 8; assay type: functional, organism-based; parameters: dose 100 mg/kg
Vaccinia virus WR [24] = assay: Antiviral activity against Vaccinia virus WR ATCC VR-1354 infected through intraperitoneal route in BALB/c mouse assessed as reduction of viral load in brain at 100 mg/kg, po qd measured after 5 days postinfection by RT-PCR analysis relative to control; assay type: functional, organism-based; parameters: dose 100 mg/kg
Vaccinia virus WR [25] = assay: Antiviral activity against Vaccinia virus WR ATCC VR-1354 infected through percutaneous route in BALB/c mouse assessed as inhibition of virus dissemination in liver at 100 mg/kg, po qd for 3 to 14 days by RT-PCR analysis; assay type: functional, organism-based; parameters: dose 100 mg/kg
Vaccinia virus WR [26] = assay: Antiviral activity against Vaccinia virus WR ATCC VR-1354 infected through dermal scarification route in BALB/c mouse assessed as reduction of viral load in lung at 100 mg/kg, po qd measured after 5 days postinfection by RT-PCR analysis relative to control; assay type: functional

SMILES: O=C(NN1C(=O)[C@@H]2[C@@H]3C=C[C@@H]([C@H]4C[C@@H]34)[C@@H]2C1=O)c1ccc(C(F)(F)F)cc1 [TECOVIRIMAT]
- fold change (FC) (Vaccinia virus WR [1]): 18
- fold change (FC) (Vaccinia virus WR [2]): 25
- fold change (FC) (Vaccinia virus WR [3]): 3
- Activity (Vaccinia virus WR [4]): Active
- Activity (Vaccinia virus WR [5]): Active
- Activity (Vaccinia virus WR [6]): Active
- Activity (Vaccinia virus WR [7]): Active
- fold change (FC) (Vaccinia virus WR [8]): 300
- fold change (FC) (Vaccinia virus WR [9]): 300
- fold change (FC) (Vaccinia virus WR [10]): 85
- Activity (Vaccinia virus WR [11]): inactive
- Activity (Vaccinia virus WR [12]): Active
- Activity (Vaccinia virus WR [13]): Active
- Activity (Vaccinia virus WR [14]): Active
- Activity (Vaccinia virus WR [15]): inactive
- fold change (FC) (Vaccinia virus WR [16]): 44000
- Activity (Vaccinia virus WR [17]): Active
- Activity (Vaccinia virus WR [18]): Active
- fold change (FC) (Vaccinia virus WR [19]): 8
- Activity (Vaccinia virus WR [20]): Active
- Activity (Vaccinia virus WR [21]): Active
- Activity (Vaccinia virus WR [22]): Active
- Activity (Vaccinia virus WR [23]): inactive
- Activity (Vaccinia virus WR [24]): Active
- Activity (Vaccinia virus WR [25]): Active
- fold change (FC) (Vaccinia virus WR [26]): 18
